Measured values taken from patent US6906205B2, “Spiro and dispiro 1,2,4-trioxolane antimalarials” (Medicines for Malaria Venture MMV, priority 2002, dated 2005).
Converted amounts (≈) assume the structure as drawn.

Experiments:
[1] = test system: P. falciparum K1 strain (Thailand resistant to chloroquine); experiment: semiautomated microdilution assay, [3H]-hypoxanthine incorporation, K1 strain; assay type: cell-based, Plasmodium falciparum; details: K1 strain, 72 h incubation
Outline: (§1)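 IC50 values come from logit regression of semiautomated microdilution data obtained on intraerythrocytic parasites drawn from asynchronous cultures.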

[2] = test system: P. falciparum NF54 strain (sensitive to standard antimalarials); experiment: semiautomated microdilution assay, [3H]-hypoxanthine incorporation, NF54 strain; assay type: cell-based, Plasmodium falciparum; details: NF54 strain, 72 h incubation
Outline: as §1

[3] = test system: ANKA strain of P. berghei; experiment: single dose STI in vivo screen in infected mice; set-up: species or system Plasmodium berghei; details: for Activity (%) po / Activity (%) sc / Activity (%) SSVpo: percent reduction in parasitemia day 3 post-infection, mice; for Activity (%) po / Survival (days) po: single 10 mg/kg po in 3% ethanol and 7% Tween 80; for Activity (%) sc / Survival (days) sc: single 10 mg/kg sc in 3% ethanol and 7% Tween 80; for Survival (days) po / Survival (days) sc / Survival (days) SSVpo: untreated control 5.6 ± 0.3; for Activity (%) SSVpo: single po dose in standard suspending vehicle (SSV); for Survival (days) SSVpo: single po dose in SSV
Outline: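 Groups of 3-5 Moro SPF or NMRI mice infected with the ANKA strain of P. berghei received a single dose of trioxolane on day one post-infection. The compound was given in 3% ethanol and 7% Tween 80 or in SSV (0.5% w/v CMC, 0.5% v/v benzyl alcohol, 0.4% v/v Tween 80, 0.9% w/v sodium chloride in water). Antimalarial activity was scored as percent reduction in parasitemia on day three and as survival time versus untreated controls. Survival to day 30 counted as cure.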

[4] = test system: Schistosoma mansoni 21-day-old schistosomules; experiment: effect on 21-day-old schistosomules in mice; assay type: in vivo; details: single 200 mg/kg per os, female mice
Protocol: All groups were killed 4 weeks after treatment and the liver and intestine were removed and separated. The liver and intestine were compressed and alive male and female worms could be seen and counted. The effect of the compounds was evaluated by mean total and female worm burden.

[5] = test system: Schistosoma mansoni adult schistosomes (49-day-old); experiment: effect on adult schistosomes (49-day-old) in mice; assay type: in vivo; details: for % reduction of adult worms growth at day 49 after per os application of 400 mg/kg, TWR (%) / adult worms at day 49, per os 400 mg/kg, DEAD WORM (%): single 400 mg/kg per os
Protocol: Mice were infected with 100 Schistosoma mansoni cercariae […]. Each group was treated per os with OZ compounds at single doses of 200, 400, and 600 mg/kg. […] All groups were killed 4 weeks after treatment and the liver and intestine were removed and separated. The liver and intestine were compressed and alive male and female worms could be seen and counted.

SMILES | IC50 (ng/ml) K1 [1] | IC50 (ng/ml) NF54 [2] | Activity (%) po [3] | Activity (%) sc [3] | Survival (days) po [3] | Survival (days) sc [3] | % reduction of schistosomule growth at day 21 after per os application of 200 mg/kg, FWR (%) [4] | % reduction of schistosomule growth at day 21 after per os application of 200 mg/kg, TWR (%) [4] | % reduction of adult worms growth at day 49 after per os application of 400 mg/kg, TWR (%) [5] | adult worms at day 49, per os 400 mg/kg, DEAD WORM (%) [5] | % reduction of adult worms growth at day 49 after per os application of 600 mg/kg, TWR (%) ([5]; single 600 mg/kg per os) | adult worms at day 49, per os 600 mg/kg, DEAD WORM (%) ([5]; single 600 mg/kg per os) | Activity (%) SSVpo [3] | Survival (days) SSVpo [3]
C1C2CC3CC1CC(C2)C31OOC2(O1)C1CC3CC(C1)CC2C3 (centres unmarked) [OZ04] | >100/>100 ng/ml | >100/>100 ng/ml | 0/NA/0^1% | 0/NA/0^1% | 5.3/NA/5.3^1 days | 5.3/NA/5.3^1 days | 7% | 7% | 0/0% | 0/0% | – | – | – | –
C1COC2(CCC3(CC2)OOC2(O3)C3CC4CC(C3)CC2C4)O1 (centres unmarked) [OZ10] | 0.40 ng/mL (≈ 0.00124 µM) | 0.67 ng/mL (≈ 0.00208 µM) | 99.6% | 99.98% | 8.9 days | 10.5 days | 73% | 66% | 28% | 13% | 21% | 23% | – | –
O=C1CC2CC3(CC2C1)OOC1(O3)C2CC3CC(C2)CC1C3 (centres unmarked) [OZ12] | – | – | 75% | 99.8% | 7.0 days | 9.3 days | 79% | 78% | 14% | 0% | – | – | – | –
O=C1C2C3CC4C5C3C1C5C1(OOC3(O1)C1CC5CC(C1)CC3C5)C42 (centres unmarked) [OZ14] | 91 ng/mL (≈ 0.267 µM) | > 100 ng/mL | 23% | 96% | 6.0 days | 7.7 days | 0% | 7% | 0/0% | 0/0% | – | – | – | –
CON=C1CCC2(CC1)OOC1(O2)C2CC3CC(C2)CC1C3 (centres unmarked) [OZ15] | 0.60 ng/mL (≈ 0.00195 µM) | 1.0 ng/mL (≈ 0.00325 µM) | 99.8% | 99.9% | 7.4 days | 8.2 days | 70% | 63% | 0% | 10% | – | – | 88% | 6.8 days
CC(C)(C)C1CCC2(CC1)OOC1(O2)C2CC3CC(C2)CC1C3 (centres unmarked) [OZ18] | 63 ng/mL (≈ 0.197 µM) | 84 ng/mL (≈ 0.262 µM) | 0/NA/0% | 0/NA/0% | 5.0 days | 5.3 days | 9% | 12% | 0/0% | 0/0% | – | – | – | –
C1CCCCCC2(CCCCC1)OOC1(O2)C2CC3CC(C2)CC1C3 (centres unmarked) [OZ20] | 15 ng/mL (≈ 0.043 µM) | 20 ng/mL (≈ 0.0574 µM) | – | – | – | – | 0% | 0% | 0/0% | 0/0% | – | – | – | –
O=C1CCC2(CC1)OOC1(CCCCCCCCCCC1)O2 [OZ21] | 14 ng/mL (≈ 0.0451 µM) | 25 ng/mL (≈ 0.0805 µM) | 0/NA/0% | 0/NA/0% | 5.0 days | 6.0 days | 20% | 18% | 0/0% | 0/0% | – | – | – | –
CCOC(=O)N1CCC2(CC1)OOC1(O2)C2CC3CC(C2)CC1C3 (centres unmarked) [OZ23] | 0.29 ng/mL (≈ 0.000859 µM) | 0.57 ng/mL (≈ 0.00169 µM) | 99.5% | 99.9% | 7.7 days | 8.9 days | 84% | 90% | 0% | 4% | – | – | 99.34% | 7.0 days
O=C(c1ccccc1)N1CCC2(CC1)OOC1(O2)C2CC3CC(C2)CC1C3 (centres unmarked) [OZ24] | 0.35 ng/mL (≈ 0.000947 µM) | 0.58 ng/mL (≈ 0.00157 µM) | 93% | 99.9% | 7.0 days | 8.7 days | 61% | 65% | 21% | 0% | – | – | 66% | 6.8 days
CCCC1CCC2(CC1)OOC1(O2)C2CC3CC(C2)CC1C3 (centres unmarked) [OZ25] | 1.1 ng/mL (≈ 0.00359 µM) | 2.1 ng/mL (≈ 0.00685 µM) | 99.9% | 99.97% | 8.4 days | 16.5 days | 84% | 86% | 46% | 34% | – | – | 96% | 7.2 days
O=[N+]([O-])c1ccc(NN=C2CCC3(CC2)OOC2(O3)C3CC4CC(C3)CC2C4)c([N+](=O)[O-])c1 (centres unmarked) [OZ29] | 9.7 ng/mL (≈ 0.0212 µM) | 13 ng/mL (≈ 0.0284 µM) | 0/NA/0% | 0/NA/0% | 5.0/NA/5.0 days | 5.0/NA/5.0 days | 20% | 28% | 0/0% | 0/0% | – | – | – | –
c1ccc2c(c1)COC1(CCC3(CC1)OOC1(O3)C3CC4CC(C3)CC1C4)OC2 (centres unmarked) [OZ31] | – | – | 99.95% | 99.95% | 9.0 days | 17.7 days | 63% | 60% | 4/4% | 4/4% | – | – | 90% | 7.3 days
C1C2CC3CC1CC(C2)C31OOC2(CCC3(CC2)OOC2(O3)C3CC4CC(C3)CC2C4)O1 (centres unmarked) [OZ169] | 15 ng/mL (≈ 0.0337 µM) | > 10 ng/mL | 98% | 99.76% | 7.7 days | 9.0 days | 0% | 0% | – | – | – | – | 22% | 6.7 days
NCCOc1ccc([C@H]2CC[C@]3(CC2)OO[C@]2(O3)C3CC4CC(C3)CC2C4)cc1 [OZ323] | 0.85 ng/mL (≈ 0.00213 µM) | 1.1 ng/mL (≈ 0.00275 µM) | – | – | – | – | 97% | 95% | 20% | 23% | – | – | – | –
O=C(C1CCCCC1)N1CC(=O)N2CCc3ccccc3C2C1 (centres unmarked) [PRAZIQUANTEL, praziquantel, reference compound] | – | – | – | – | – | – | 0% | 0% | 96/96% | 96/96% | – | 100/100% | – | –
